Calls of active or inactive are those of the source. The calls are words filed in the database; no cut-off is given here.
Tested on: Serine/threonine-protein kinase B-raf (Homo sapiens), P15056 [V600E]
Experiment: Inhibition of BRAF V600E mutant assessed as reduction in MEK phosphorylation in human A375P cells after 24 hrs by Western blot analysis
Format: cell-based
Conditions: not given

Serine/threonine-protein kinase B-raf (Homo sapiens), P15056 [V600E], sequence (P15056 whole entry V600E): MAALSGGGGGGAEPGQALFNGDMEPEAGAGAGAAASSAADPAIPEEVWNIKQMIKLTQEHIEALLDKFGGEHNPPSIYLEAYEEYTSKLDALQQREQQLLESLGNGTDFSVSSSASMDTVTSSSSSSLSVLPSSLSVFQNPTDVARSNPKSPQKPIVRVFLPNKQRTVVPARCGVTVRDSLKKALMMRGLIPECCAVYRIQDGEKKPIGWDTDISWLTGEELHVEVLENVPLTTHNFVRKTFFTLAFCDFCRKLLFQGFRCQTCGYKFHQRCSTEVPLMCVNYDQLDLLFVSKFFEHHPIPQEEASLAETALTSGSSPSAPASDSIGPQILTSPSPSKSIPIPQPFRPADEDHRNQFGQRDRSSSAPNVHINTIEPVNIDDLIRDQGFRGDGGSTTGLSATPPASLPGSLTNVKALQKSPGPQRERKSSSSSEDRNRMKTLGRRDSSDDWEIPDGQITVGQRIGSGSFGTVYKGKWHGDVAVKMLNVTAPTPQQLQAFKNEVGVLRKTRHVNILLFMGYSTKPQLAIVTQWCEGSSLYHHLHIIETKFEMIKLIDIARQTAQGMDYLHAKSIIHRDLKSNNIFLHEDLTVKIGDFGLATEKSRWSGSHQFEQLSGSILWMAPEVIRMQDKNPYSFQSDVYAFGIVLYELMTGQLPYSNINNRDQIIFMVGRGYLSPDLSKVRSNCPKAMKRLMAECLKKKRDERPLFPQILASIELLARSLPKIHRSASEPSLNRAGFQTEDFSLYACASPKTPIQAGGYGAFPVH

SMILES	inhibition
CNC(=O)c1cc(Oc2ccc3nc(NC(=O)Nc4cc(C(F)(F)F)cc(C(F)(F)F)c4)sc3c2)ccn1	Dose-dependent effect

Tested on: MDA-MB-468
Experiment: Antiproliferative activity against human MDA-MB-468 cells assessed as cell growth at 10^-7 M after 48 hrs by sulforhodamine B assay
Format: functional
Conditions: MDA-MB-468, 48 h, read-out: Activity

SMILES	growth at 0.1 µM [%]
CNC(=O)c1cc(Oc2ccc3nc(NC(=O)c4cc(C(F)(F)F)cc(C(F)(F)F)c4)sc3c2)ccn1	96
CNC(=O)c1cc(Oc2ccc3nc(NC(=O)Nc4cc(C(F)(F)F)cc(C(F)(F)F)c4)sc3c2)ccn1	91

Tested on: not listed separately
Experiment: Antiproliferative activity against human SF539 cells assessed as cell growth at 10^-4 M after 48 hrs by sulforhodamine B assay
Format: functional
Conditions: SF-539, 48 h, read-out: Activity

SMILES	growth at 100 µM [%]
CNC(=O)c1cc(Oc2ccc3nc(NC(=O)c4cc(C(F)(F)F)cc(C(F)(F)F)c4)sc3c2)ccn1	-61
CNC(=O)c1cc(Oc2ccc3nc(NC(=O)Nc4cc(C(F)(F)F)cc(C(F)(F)F)c4)sc3c2)ccn1	-77

Tested on: T47D
Experiment: Antiproliferative activity against human T47D cells assessed as cell growth at 10^-7 M after 48 hrs by sulforhodamine B assay
Format: functional
Conditions: read-out: Activity

SMILES	growth at 0.1 µM [%]
CNC(=O)c1cc(Oc2ccc3nc(NC(=O)c4cc(C(F)(F)F)cc(C(F)(F)F)c4)sc3c2)ccn1	88
CNC(=O)c1cc(Oc2ccc3nc(NC(=O)Nc4cc(C(F)(F)F)cc(C(F)(F)F)c4)sc3c2)ccn1	89

Tested on: not listed separately
Experiment: Antiproliferative activity against human IGROV1 cells assessed as cell growth at 10^-6 M after 48 hrs by sulforhodamine B assay
Format: functional
Conditions: IGROV-1, 48 h, read-out: Activity

SMILES	growth at 1 µM [%]
CNC(=O)c1cc(Oc2ccc3nc(NC(=O)c4cc(C(F)(F)F)cc(C(F)(F)F)c4)sc3c2)ccn1	90
CNC(=O)c1cc(Oc2ccc3nc(NC(=O)Nc4cc(C(F)(F)F)cc(C(F)(F)F)c4)sc3c2)ccn1	62

Tested on: not listed separately
Experiment: Antiproliferative activity against human UO31 cells assessed as cell growth at 10^-6 M after 48 hrs by sulforhodamine B assay
Format: functional
Conditions: UO-31, 48 h, read-out: Activity

SMILES	growth at 1 µM [%]
CNC(=O)c1cc(Oc2ccc3nc(NC(=O)c4cc(C(F)(F)F)cc(C(F)(F)F)c4)sc3c2)ccn1	78
CNC(=O)c1cc(Oc2ccc3nc(NC(=O)Nc4cc(C(F)(F)F)cc(C(F)(F)F)c4)sc3c2)ccn1	65

Tested on: not listed separately
Experiment: Antiproliferative activity against human SNB19 cells assessed as cell growth at 10^-4 M after 48 hrs by sulforhodamine B assay
Format: functional
Conditions: SNB-19, 48 h, read-out: Activity

SMILES	growth at 100 µM [%]
CNC(=O)c1cc(Oc2ccc3nc(NC(=O)c4cc(C(F)(F)F)cc(C(F)(F)F)c4)sc3c2)ccn1	-28
CNC(=O)c1cc(Oc2ccc3nc(NC(=O)Nc4cc(C(F)(F)F)cc(C(F)(F)F)c4)sc3c2)ccn1	-45

Tested on: Serine/threonine-protein kinase B-raf (Homo sapiens), P15056 [V600E]
Experiment: Inhibition of BRAF V600E mutant assessed as reduction in ERK phosphorylation in human A375P cells after 24 hrs by Western blot analysis
Format: cell-based
Conditions: not given

SMILES	inhibition
CNC(=O)c1cc(Oc2ccc3nc(NC(=O)Nc4cc(C(F)(F)F)cc(C(F)(F)F)c4)sc3c2)ccn1	Active

Target: Aurora kinase A (Homo sapiens) (UniProt O14965)
Experiment: Inhibition of human Aurora-A at 10 uM measured after 40 mins by scintillation counting
Conditions: not given

SMILES	inhibition [%]
CNC(=O)c1cc(Oc2ccc3nc(NC(=O)Nc4cc(C(F)(F)F)cc(C(F)(F)F)c4)sc3c2)ccn1	< 40

Tested on: A549
Experiment: Antiproliferative activity against human A549/ATCC cells assessed as cell growth at 10^-8 M after 48 hrs by sulforhodamine B assay
Format: functional
Conditions: A549, 48 h, read-out: Activity

SMILES	growth at 0.01 µM [%]
CNC(=O)c1cc(Oc2ccc3nc(NC(=O)c4cc(C(F)(F)F)cc(C(F)(F)F)c4)sc3c2)ccn1	92
CNC(=O)c1cc(Oc2ccc3nc(NC(=O)Nc4cc(C(F)(F)F)cc(C(F)(F)F)c4)sc3c2)ccn1	104

Tested on: not listed separately
Experiment: Antiproliferative activity against human HCT15 cells assessed as growth inhibition after 48 hrs by sulforhodamine B assay
Format: functional
Conditions: HCT-15, 48 h

SMILES	GI50 [µM]	LC50 [µM]	TGI [µM]
CNC(=O)c1cc(Oc2ccc3nc(NC(=O)c4cc(C(F)(F)F)cc(C(F)(F)F)c4)sc3c2)ccn1	3.97	> 100	25.1
CNC(=O)c1cc(Oc2ccc3nc(NC(=O)Nc4cc(C(F)(F)F)cc(C(F)(F)F)c4)sc3c2)ccn1	1.5	7.32	3.31

Tested on: not listed separately
Experiment: Antiproliferative activity against human IGROV1 cells assessed as cell growth at 10^-8 M after 48 hrs by sulforhodamine B assay
Format: functional
Conditions: IGROV-1, 48 h, read-out: Activity

SMILES	growth at 0.01 µM [%]
CNC(=O)c1cc(Oc2ccc3nc(NC(=O)c4cc(C(F)(F)F)cc(C(F)(F)F)c4)sc3c2)ccn1	106
CNC(=O)c1cc(Oc2ccc3nc(NC(=O)Nc4cc(C(F)(F)F)cc(C(F)(F)F)c4)sc3c2)ccn1	103

Tested on: not listed separately
Experiment: Antiproliferative activity against human OVCAR3 cells assessed as cell growth at 10^-7 M after 48 hrs by sulforhodamine B assay
Format: functional
Conditions: OVCAR-3, 48 h, read-out: Activity

SMILES	growth at 0.1 µM [%]
CNC(=O)c1cc(Oc2ccc3nc(NC(=O)c4cc(C(F)(F)F)cc(C(F)(F)F)c4)sc3c2)ccn1	102
CNC(=O)c1cc(Oc2ccc3nc(NC(=O)Nc4cc(C(F)(F)F)cc(C(F)(F)F)c4)sc3c2)ccn1	97

Tested on: KM12
Experiment: Antiproliferative activity against human KM12 cells assessed as growth inhibition after 48 hrs by sulforhodamine B assay
Format: functional
Conditions: KM12, 48 h

SMILES	GI50 [µM]	LC50 [µM]	TGI [µM]
CNC(=O)c1cc(Oc2ccc3nc(NC(=O)c4cc(C(F)(F)F)cc(C(F)(F)F)c4)sc3c2)ccn1	2.7	92.7	11
CNC(=O)c1cc(Oc2ccc3nc(NC(=O)Nc4cc(C(F)(F)F)cc(C(F)(F)F)c4)sc3c2)ccn1	0.444	7.96	2

Target: Tyrosine-protein kinase ABL1 (Homo sapiens) (UniProt P00519)
Sequence (P00519 whole entry): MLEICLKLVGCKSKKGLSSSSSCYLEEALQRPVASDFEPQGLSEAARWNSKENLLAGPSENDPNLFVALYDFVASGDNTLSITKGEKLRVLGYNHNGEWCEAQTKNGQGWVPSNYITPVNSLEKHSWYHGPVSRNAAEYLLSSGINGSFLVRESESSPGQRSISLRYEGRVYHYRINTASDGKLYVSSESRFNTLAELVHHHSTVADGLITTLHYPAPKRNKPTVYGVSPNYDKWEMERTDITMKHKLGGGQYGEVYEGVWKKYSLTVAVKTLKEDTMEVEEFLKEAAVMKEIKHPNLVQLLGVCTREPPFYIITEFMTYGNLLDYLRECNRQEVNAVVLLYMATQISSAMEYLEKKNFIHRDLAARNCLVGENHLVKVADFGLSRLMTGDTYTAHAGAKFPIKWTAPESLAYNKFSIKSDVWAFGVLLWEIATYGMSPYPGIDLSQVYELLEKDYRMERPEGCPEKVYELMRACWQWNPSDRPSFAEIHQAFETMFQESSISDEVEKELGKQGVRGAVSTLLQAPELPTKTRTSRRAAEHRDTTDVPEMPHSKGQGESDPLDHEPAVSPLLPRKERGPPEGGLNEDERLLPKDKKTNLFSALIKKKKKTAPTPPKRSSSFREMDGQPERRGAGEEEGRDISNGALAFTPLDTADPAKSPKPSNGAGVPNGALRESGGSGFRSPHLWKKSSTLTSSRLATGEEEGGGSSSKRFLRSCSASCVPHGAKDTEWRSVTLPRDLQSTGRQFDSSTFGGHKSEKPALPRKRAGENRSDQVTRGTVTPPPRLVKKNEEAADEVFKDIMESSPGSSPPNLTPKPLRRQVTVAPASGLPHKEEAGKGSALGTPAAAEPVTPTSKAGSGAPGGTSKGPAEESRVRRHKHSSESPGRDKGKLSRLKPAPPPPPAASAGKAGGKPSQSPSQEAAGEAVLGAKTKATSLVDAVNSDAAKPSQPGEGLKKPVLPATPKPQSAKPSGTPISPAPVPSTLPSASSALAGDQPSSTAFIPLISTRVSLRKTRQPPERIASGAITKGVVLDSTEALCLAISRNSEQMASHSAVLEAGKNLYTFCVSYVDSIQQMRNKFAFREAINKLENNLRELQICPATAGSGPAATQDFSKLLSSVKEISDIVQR
Experiment: Inhibition of human ABL1 at 10 uM measured after 40 mins by scintillation counting
Conditions: not given

SMILES	inhibition [%]
CNC(=O)c1cc(Oc2ccc3nc(NC(=O)Nc4cc(C(F)(F)F)cc(C(F)(F)F)c4)sc3c2)ccn1	< 40

Tested on: not listed separately
Experiment: Antiproliferative activity against human NCI-ADR-RES cells assessed as growth inhibition after 48 hrs by sulforhodamine B assay
Format: functional
Conditions: not given

SMILES	GI50 [µM]	LC50 (concentration killing 50% of cells) [µM]	TGI [µM]
CNC(=O)c1cc(Oc2ccc3nc(NC(=O)c4cc(C(F)(F)F)cc(C(F)(F)F)c4)sc3c2)ccn1	3.67	> 100	19.1
CNC(=O)c1cc(Oc2ccc3nc(NC(=O)Nc4cc(C(F)(F)F)cc(C(F)(F)F)c4)sc3c2)ccn1	1.27	–	3.19

Tested on: not listed separately
Experiment: Antiproliferative activity against human OVCAR8 cells assessed as cell growth at 10^-4 M after 48 hrs by sulforhodamine B assay
Format: functional
Conditions: OVCAR-8, 48 h, read-out: Activity

SMILES	growth at 100 µM [%]
CNC(=O)c1cc(Oc2ccc3nc(NC(=O)c4cc(C(F)(F)F)cc(C(F)(F)F)c4)sc3c2)ccn1	-61
CNC(=O)c1cc(Oc2ccc3nc(NC(=O)Nc4cc(C(F)(F)F)cc(C(F)(F)F)c4)sc3c2)ccn1	-96

Target: Epidermal growth factor receptor (Homo sapiens) (UniProt P00533)
Sequence (P00533 whole entry): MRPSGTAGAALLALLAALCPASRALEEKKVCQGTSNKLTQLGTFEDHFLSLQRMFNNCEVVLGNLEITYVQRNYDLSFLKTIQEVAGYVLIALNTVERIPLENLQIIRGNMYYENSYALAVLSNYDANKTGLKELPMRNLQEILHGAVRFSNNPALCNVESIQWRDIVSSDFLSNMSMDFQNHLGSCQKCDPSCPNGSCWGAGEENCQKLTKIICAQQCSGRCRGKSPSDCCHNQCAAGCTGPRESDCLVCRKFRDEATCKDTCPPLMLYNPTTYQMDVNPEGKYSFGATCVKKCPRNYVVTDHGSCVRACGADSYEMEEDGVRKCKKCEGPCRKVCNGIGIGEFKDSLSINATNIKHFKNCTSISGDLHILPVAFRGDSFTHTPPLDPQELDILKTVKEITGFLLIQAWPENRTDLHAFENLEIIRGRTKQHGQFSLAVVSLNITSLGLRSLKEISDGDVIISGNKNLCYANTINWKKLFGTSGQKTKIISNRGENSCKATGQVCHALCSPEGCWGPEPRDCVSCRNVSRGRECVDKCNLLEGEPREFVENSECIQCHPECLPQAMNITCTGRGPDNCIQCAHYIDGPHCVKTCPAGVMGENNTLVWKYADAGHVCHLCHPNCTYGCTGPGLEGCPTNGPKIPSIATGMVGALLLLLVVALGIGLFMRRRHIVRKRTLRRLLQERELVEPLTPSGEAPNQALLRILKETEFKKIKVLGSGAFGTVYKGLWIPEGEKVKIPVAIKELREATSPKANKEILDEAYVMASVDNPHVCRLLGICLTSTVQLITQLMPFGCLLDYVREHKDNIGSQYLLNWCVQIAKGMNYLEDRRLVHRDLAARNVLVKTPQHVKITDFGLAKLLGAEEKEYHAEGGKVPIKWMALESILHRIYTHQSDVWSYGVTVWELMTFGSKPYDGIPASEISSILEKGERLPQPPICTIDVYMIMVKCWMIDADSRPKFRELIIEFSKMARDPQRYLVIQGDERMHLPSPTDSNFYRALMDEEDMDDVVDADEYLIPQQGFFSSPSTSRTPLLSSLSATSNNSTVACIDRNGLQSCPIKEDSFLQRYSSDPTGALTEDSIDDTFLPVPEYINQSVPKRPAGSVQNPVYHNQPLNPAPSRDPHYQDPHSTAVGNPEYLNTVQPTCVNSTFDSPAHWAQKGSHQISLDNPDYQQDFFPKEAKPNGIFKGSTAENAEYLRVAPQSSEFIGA
Experiment: Inhibition of human EGFR at 10 uM measured after 40 mins by scintillation counting
Conditions: not given

SMILES	inhibition [%]
CNC(=O)c1cc(Oc2ccc3nc(NC(=O)Nc4cc(C(F)(F)F)cc(C(F)(F)F)c4)sc3c2)ccn1	< 40

Target: Fibroblast growth factor receptor 3 (Homo sapiens) (UniProt P22607)
Experiment: Inhibition of human FGFR3 at 10 uM measured after 40 mins by scintillation counting
Conditions: not given

SMILES	inhibition [%]
CNC(=O)c1cc(Oc2ccc3nc(NC(=O)Nc4cc(C(F)(F)F)cc(C(F)(F)F)c4)sc3c2)ccn1	< 40

Target: Serine/threonine-protein kinase B-raf (Homo sapiens) (UniProt P15056)
Sequence (P15056 whole entry): as the sequence (P15056 whole entry V600E) above, with E600V counted along it
Experiment: Inhibition of human BRAF at 10 uM measured after 40 mins by scintillation counting
Conditions: not given

SMILES	inhibition [%]
CNC(=O)c1cc(Oc2ccc3nc(NC(=O)Nc4cc(C(F)(F)F)cc(C(F)(F)F)c4)sc3c2)ccn1	< 40

Target: Proto-oncogene tyrosine-protein kinase Src (Homo sapiens) (UniProt P12931)
Experiment: Inhibition of human C-Src at 10 uM measured after 40 mins by scintillation counting
Conditions: not given

SMILES	inhibition [%]
CNC(=O)c1cc(Oc2ccc3nc(NC(=O)Nc4cc(C(F)(F)F)cc(C(F)(F)F)c4)sc3c2)ccn1	< 40

Target: Hepatocyte growth factor receptor (Homo sapiens) (UniProt P08581)
Sequence (P08581 whole entry): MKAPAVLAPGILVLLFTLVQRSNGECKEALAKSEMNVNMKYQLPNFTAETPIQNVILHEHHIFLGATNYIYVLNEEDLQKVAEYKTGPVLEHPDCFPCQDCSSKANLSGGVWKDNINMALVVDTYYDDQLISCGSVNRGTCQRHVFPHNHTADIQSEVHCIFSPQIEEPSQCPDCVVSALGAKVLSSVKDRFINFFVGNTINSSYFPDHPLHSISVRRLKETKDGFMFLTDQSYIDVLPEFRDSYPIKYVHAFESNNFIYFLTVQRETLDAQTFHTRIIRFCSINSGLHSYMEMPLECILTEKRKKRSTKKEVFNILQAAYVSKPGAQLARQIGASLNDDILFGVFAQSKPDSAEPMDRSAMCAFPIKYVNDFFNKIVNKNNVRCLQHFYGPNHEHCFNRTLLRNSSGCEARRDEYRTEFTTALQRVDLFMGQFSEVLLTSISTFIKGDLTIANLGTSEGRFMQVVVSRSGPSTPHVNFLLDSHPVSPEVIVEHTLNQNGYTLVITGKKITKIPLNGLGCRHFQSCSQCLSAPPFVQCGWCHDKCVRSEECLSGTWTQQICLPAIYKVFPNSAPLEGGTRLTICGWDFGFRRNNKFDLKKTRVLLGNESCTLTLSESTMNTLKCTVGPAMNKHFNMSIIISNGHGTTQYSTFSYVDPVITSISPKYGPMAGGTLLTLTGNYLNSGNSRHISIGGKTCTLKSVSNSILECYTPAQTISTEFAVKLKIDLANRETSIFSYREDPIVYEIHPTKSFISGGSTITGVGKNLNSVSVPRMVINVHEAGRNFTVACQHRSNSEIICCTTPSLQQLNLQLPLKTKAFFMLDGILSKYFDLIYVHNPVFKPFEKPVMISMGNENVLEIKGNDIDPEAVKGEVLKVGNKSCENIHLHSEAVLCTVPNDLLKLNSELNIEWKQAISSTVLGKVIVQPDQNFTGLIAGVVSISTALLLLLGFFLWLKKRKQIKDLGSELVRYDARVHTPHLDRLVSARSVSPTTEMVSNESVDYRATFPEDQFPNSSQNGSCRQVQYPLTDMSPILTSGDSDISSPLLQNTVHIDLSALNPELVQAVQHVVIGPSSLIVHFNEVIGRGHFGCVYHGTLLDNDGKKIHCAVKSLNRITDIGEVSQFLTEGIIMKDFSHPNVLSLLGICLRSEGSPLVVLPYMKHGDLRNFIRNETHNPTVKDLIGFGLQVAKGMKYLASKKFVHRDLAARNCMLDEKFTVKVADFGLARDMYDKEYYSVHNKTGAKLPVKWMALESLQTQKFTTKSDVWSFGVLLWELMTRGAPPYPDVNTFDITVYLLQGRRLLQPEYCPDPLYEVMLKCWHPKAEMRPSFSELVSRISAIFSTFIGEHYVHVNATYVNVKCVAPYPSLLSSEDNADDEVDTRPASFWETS
Experiment: Inhibition of human C-Met at 10 uM measured after 40 mins by scintillation counting
Conditions: not given

SMILES	inhibition [%]
CNC(=O)c1cc(Oc2ccc3nc(NC(=O)Nc4cc(C(F)(F)F)cc(C(F)(F)F)c4)sc3c2)ccn1	< 40

Tested on: not listed separately
Experiment: Antiproliferative activity against human HL-60(TB) cells assessed as cell growth at 10^-4 M after 48 hrs by sulforhodamine B assay
Format: functional
Conditions: HL-60, 48 h, read-out: Activity

SMILES	growth at 100 µM [%]
CNC(=O)c1cc(Oc2ccc3nc(NC(=O)c4cc(C(F)(F)F)cc(C(F)(F)F)c4)sc3c2)ccn1	-45
CNC(=O)c1cc(Oc2ccc3nc(NC(=O)Nc4cc(C(F)(F)F)cc(C(F)(F)F)c4)sc3c2)ccn1	-59

Tested on: CCRF-CEM
Experiment: Antiproliferative activity against human CCRF-CEM cells assessed as cell growth at 10^-7 M after 48 hrs by sulforhodamine B assay
Format: functional
Conditions: read-out: Activity

SMILES	growth at 0.1 µM [%]
CNC(=O)c1cc(Oc2ccc3nc(NC(=O)c4cc(C(F)(F)F)cc(C(F)(F)F)c4)sc3c2)ccn1	108
CNC(=O)c1cc(Oc2ccc3nc(NC(=O)Nc4cc(C(F)(F)F)cc(C(F)(F)F)c4)sc3c2)ccn1	114

Target: Activin receptor type-1-like (Homo sapiens) (UniProt P37023)
Sequence (P37023 whole entry): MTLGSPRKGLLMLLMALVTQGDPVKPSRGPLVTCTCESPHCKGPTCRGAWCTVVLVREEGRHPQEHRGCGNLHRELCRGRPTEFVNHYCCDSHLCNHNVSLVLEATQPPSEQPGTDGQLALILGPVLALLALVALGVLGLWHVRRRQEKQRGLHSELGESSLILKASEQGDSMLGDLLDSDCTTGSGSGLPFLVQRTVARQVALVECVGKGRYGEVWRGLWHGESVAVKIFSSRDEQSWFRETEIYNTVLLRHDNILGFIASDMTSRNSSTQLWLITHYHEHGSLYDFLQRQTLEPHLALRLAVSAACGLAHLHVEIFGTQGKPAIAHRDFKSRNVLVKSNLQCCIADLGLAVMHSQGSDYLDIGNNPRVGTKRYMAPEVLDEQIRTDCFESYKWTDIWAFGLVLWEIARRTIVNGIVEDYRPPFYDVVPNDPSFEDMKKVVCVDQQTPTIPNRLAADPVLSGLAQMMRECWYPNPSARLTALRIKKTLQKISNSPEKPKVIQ
Experiment: Inhibition of human ALK1 at 10 uM measured after 40 mins by scintillation counting
Conditions: not given

SMILES	inhibition [%]
CNC(=O)c1cc(Oc2ccc3nc(NC(=O)Nc4cc(C(F)(F)F)cc(C(F)(F)F)c4)sc3c2)ccn1	< 40

Tested on: NCI-H460
Experiment: Antiproliferative activity against human NCI-H460 cells assessed as cell growth at 10^-4 M after 48 hrs by sulforhodamine B assay
Format: functional
Conditions: NCI-H460, 48 h, read-out: Activity

SMILES	growth at 100 µM [%]
CNC(=O)c1cc(Oc2ccc3nc(NC(=O)c4cc(C(F)(F)F)cc(C(F)(F)F)c4)sc3c2)ccn1	-69
CNC(=O)c1cc(Oc2ccc3nc(NC(=O)Nc4cc(C(F)(F)F)cc(C(F)(F)F)c4)sc3c2)ccn1	-71

Tested on: MDA-MB-231
Experiment: Antiproliferative activity against human MDA-MB-231 cells assessed as cell growth at 10^-4 M after 48 hrs by sulforhodamine B assay
Format: functional
Conditions: MDA-MB-231, 48 h, read-out: Activity

SMILES	growth at 100 µM [%]
CNC(=O)c1cc(Oc2ccc3nc(NC(=O)c4cc(C(F)(F)F)cc(C(F)(F)F)c4)sc3c2)ccn1	-67
CNC(=O)c1cc(Oc2ccc3nc(NC(=O)Nc4cc(C(F)(F)F)cc(C(F)(F)F)c4)sc3c2)ccn1	-59

Tested on: not listed separately
Experiment: Antiproliferative activity against human HOP62 cells assessed as cell growth at 10^-7 M after 48 hrs by sulforhodamine B assay
Format: functional
Conditions: HOP-62, 48 h, read-out: Activity

SMILES	growth at 0.1 µM [%]
CNC(=O)c1cc(Oc2ccc3nc(NC(=O)c4cc(C(F)(F)F)cc(C(F)(F)F)c4)sc3c2)ccn1	92
CNC(=O)c1cc(Oc2ccc3nc(NC(=O)Nc4cc(C(F)(F)F)cc(C(F)(F)F)c4)sc3c2)ccn1	91

Tested on: MDA-MB-468
Experiment: Antiproliferative activity against human MDA-MB-468 cells assessed as cell growth at 10^-6 M after 48 hrs by sulforhodamine B assay
Format: functional
Conditions: MDA-MB-468, 48 h, read-out: Activity

SMILES	growth at 1 µM [%]
CNC(=O)c1cc(Oc2ccc3nc(NC(=O)c4cc(C(F)(F)F)cc(C(F)(F)F)c4)sc3c2)ccn1	95
CNC(=O)c1cc(Oc2ccc3nc(NC(=O)Nc4cc(C(F)(F)F)cc(C(F)(F)F)c4)sc3c2)ccn1	22
